From patent publication US12180466B2, “Plant tissue collection, RNA extraction and genetic analysis” (WINFIELD SOLUTIONS, LLC, priority 2018, dated 2024)

Legend:
maize seeds [1] = assay: Germination of treated maize seeds and harvestability of tissue at timepoints (Maize Trial 1); assay type: in vivo; conditions: for non-harvestable seeds (did not germinate): 120-hour timepoint, subgroup 4, radicle and coleoptile
Method: This study applied 5 different PGRs to separate treatment groups each comprised of 30 maize seeds. A negative control group of 30 maize seeds was exposed to a control solution devoid of any PGRs. The ability to germinate the seeds and harvest the desired tissues from the seeds and nascent seedlings at 5 timepoints was evaluated, and the total RNA extracted, sequenced and analyzed. […] Ten plates were prepared for each of the 6 groups evaluated (5 treatment groups+1 control group). Each test group included 5 subgroups, each subgroup corresponding to 1 of the 5 harvesting timepoints. Replicates of each subgroup were prepared, such that each of the 5 subgroups of seeds occupied two plates. Group 1 served as the untreated negative control group. Group 2 was treated with a first PGR composition (“PGR 1”) that includes active components containing 0.09 wt % cytokinin (kinetin), 0.03 wt % GA, and 0.045 wt % IBA. Group 3 was treated with kinetin. Group 4 was treated with GA. Group 5 was treated with IBA. Group 6 was treated with a second PGR composition (“PGR 2”) that includes active components containing 0.11 wt % CPPA and 0.01 wt % cytokinin (kinetin). Stock solutions of the treatments were prepared, each including equal amounts of propylene glycol, which was used to dissolve the kinetin. The amount of each treatment substance applied per seed varied between, but not within, the treatment groups. As shown below in Table 1, the control group was untreated. Each seed within group 2 was treated with 1.2 μL of the PGR 1. Each seed within group 3 was treated with 1.14 μg of kinetin. Each seed within group 4 was treated with 0.572 μg of GA. Each seed within group 5 was treated with 0.381 μg of IBA. Each seed within group 6 was treated with 1.7 μL of PGR 2. The seeds in each group were incubated at 15.5° C. and harvested at 5 timepoints. The first subgroup within each group was harvested after 12 hours of incubation, the second subgroup after 24 hours, the third subgroup after 96 hours, the fourth subgroup after 120 hours, and the fifth subgroup after 144 hours. […]

maize seeds [2] = assay: Whole-genome RNA sequencing of tissue from PGR-treated germinating maize seeds/seedlings, gene expression relative to control; assay type: in vivo; conditions: radicle, 144-hour timepoint
Method: This study applied 5 different PGRs to separate treatment groups each comprised of 30 maize seeds. A negative control group of 30 maize seeds was exposed to a control solution devoid of any PGRs. The ability to germinate the seeds and harvest the desired tissues from the seeds and nascent seedlings at 5 timepoints was evaluated, and the total RNA extracted, sequenced and analyzed. […] Ten plates were prepared for each of the 6 groups evaluated (5 treatment groups+1 control group). Each test group included 5 subgroups, each subgroup corresponding to 1 of the 5 harvesting timepoints. Replicates of each subgroup were prepared, such that each of the 5 subgroups of seeds occupied two plates. Group 1 served as the untreated negative control group. Group 2 was treated with a first PGR composition (“PGR 1”) that includes active components containing 0.09 wt % cytokinin (kinetin), 0.03 wt % GA, and 0.045 wt % IBA. Group 3 was treated with kinetin. Group 4 was treated with GA. Group 5 was treated with IBA. […] Expression data for 39,460 different genes was obtained and analyzed to identify which genes were differentially expressed relative to control samples at the timepoints and tissue types sampled and in response to the different treatments applied to each test group.

| Structure (SMILES) | non-harvestable seeds (did not germinate) (maize seeds [1]) | expression of gene coding for phosphopantothenate-cysteine ligase protein (maize seeds [2]) | seeds that did not germinate (maize seeds [1]; 144-hour timepoint, subgroup 5) |
| --- | --- | --- | --- |
| c1coc(CNc2ncnc3[nH]cnc23)c1 [group 3, kinetin] | 2 seeds | – | – |
| O=C(O)CCCc1c[nH]c2ccccc12 [IBA, indole-3-butyric acid] | – | increased expression | 1 seeds |
| C=C1C[C@]23C[C@@]1(O)CC[C@H]2[C@@]12C=C[C@H](O)[C@@](C)(C(=O)O1)[C@H]2[C@@H]3C(=O)O [group 4, gibberellic acid] | 1 seeds | – | – |
